The values below come from article PMC13492380, “Dissecting Structural and Functional Determinants of Microtubules Stabilization through Guided Chemical Modulation” (Journal of Medicinal Chemistry, 2026).

Assay [1] relates to Kb-3.1 cells (HeLa subclone). Description: MTT cytotoxicity assay, Kb-3.1. Type of assay: cell-based. The settings on record: Homo sapiens, read-out: Cytotoxicity IC50 Kb-3.1. Here is the method:
Antiproliferative assays were performed as described.
On the technique in general: Tetrazolium assays rely on reduction of a dye to a coloured formazan, in cell work by metabolically active cells.

The test system of assay [2] is Dynein Light Chain LC8 (retrograde transport) in SH-SY5Y cells. As to the kind of experiment: Cy5-DBP dynein binding probe tracking, live-cell imaging. Type of assay: cell-based, human. The settings on record: for Cy5-DBP Distance, normalized to control / Cy5-DBP Speed, normalized to control: 1 μM PTX or 2.5 μM FTX2, 1a or 1b, mean ± SEM. An excerpt: Building on our ability to chemically modulate MT structure, we next explored how these changes influence signaling patterns involved in MAPs interactions. Given that MTs are key players in intracellular transport – guiding organelles, vesicles and chromosomes via molecular motors like dyneins and kinesins – we assessed the impact of our compounds on transport dynamics in neuroblastoma SH-SY5Y cells. We combined live-cell imaging with previously developed tracking peptides (Figure A): Cy5-DBP, which encompasses the sequence that specifically recognizes Dynein Light Chain LC8 (retrograde transport), and Cy5-KBP, with a sequence that binds to the tetratricopeptide repeat of the kinesin-1 light chain KLC1 (anterograde transport). […] However, this was for a short incubation period (1 to 2.5 h, including imaging time) to avoid mitotic arrest or compromise cell viability. We then assessed particle behavior by measuring mean track displacement and mean track velocity.
Cy5-KBP and Cy5-DBP tracking peptides were synthesized at CIB-Margarita Salas (CSIC), following a published protocol. Briefly, the peptide chains were assembled via solid phase peptide synthesis (SPPS) using fluorenylmethyloxycarbonyl (Fmoc) as N-terminal protecting group and, subsequently labeled with the organic dye cyanine 5 (Cy5) via a maleimide–thiol reaction between the N-terminal cysteine residues of the peptides and the commercially available Cy5-maleimide. The final peptides were purified via reverse phase HPLC, dissolved in DMSO to a final 2.5 mM concentration and stored in small aliquots at −20 °C. SH-SY5Y cells were seeded into μ-Slide 8-wells ibiTreat plates (ibidi, flat polymer coverslip-bottom, tissue culture treated) at a concentration of 35,000 cells/well and incubated for 48 h at 37 °C and 5% CO2. […] After this time, the culture medium was replaced by the drug working solution containing either Cy5-KBP or Cy5-DBP, and the plate was incubated for an additional 15 min at 37 °C and 5% CO2. Then, the culture medium was replaced with drug working solution without labeled peptide and the cells were imaged using a confocal laser scanning microscope Leica TCS SP8 with a 63x oil immersion objective that included a humidified incubation chamber, a CO2 controller and a heating unit. Cy5 dye was excited at 635 nm and the fluorescence emission was collected at 645–690 nm. Images were recorded every 1.793 s for 3 min as 2-layer-z-stacks. For each condition, two to three different fields were imaged in two separate experiments.
Single-peptide trajectories were tracked with the TrackMate plugin from the Fiji package software (https://imagej.net/TrackMate). Particles with an estimated blob diameter of 1–1.5 μm were detected using the Laplacian of Gaussian (LoG) detector and linked with the Linear motion LAP tracker. Only spots that were at a maximum distance of 2 μm were linked. Trajectories with less than 6 spots were discarded since they were probably artifactual, and track mean displacement and track mean velocity were calculated and normalized to control cells. Data were further analyzed with MATLAB to perform a Mean Square Displacement (MSD) analysis to determine the mode of displacement of the peptides followed over time. Briefly, for each trajectory the MSD function was calculated and its log–log representation fitted with a linear function (log(MSD(τ)) = […] x log(τ) + C). MSD curves with an R^2 coefficient <0.8 were removed. The slope (α) of each MSD curve determines the motion type of each particle and particles were classified into: constrained particles (CM) α < 1, Brownian particles (BM) α = 1, and transported particles (TM) α > 1. Two independent experiments were performed using three biological replicates (N = 6). Statistical analyses of normalized track mean displacement and track mean velocity were performed using an unpaired t test with Welch’s correction in GraphPad Prism 8 software. […]

Where two headings read alike, the source gives them in different places.

Take `COc1ccc2c(c1)CC(NC(=O)CCCCCCCC(=O)OC1CC3OCC3(OC(C)=O)C3C(OC(=O)c4ccccc4)C4(O)CC(OC(=O)C(O)C(NC(=O)c5ccccc5)c5ccccc5)C(C)=C(C(OC(C)=O)C(=O)C13C)C4(C)C)CC2` [1b, 7-O-((S)-9″-(7‴-Methoxy-1‴,2‴,3‴,4‴-tetrahydronaphthalen-2‴-yl)amino) −9″-oxononanoyl) Paclitaxel]: in assay [1] (KB 3-1, MTT, 48 h, mean ± SEM), the half-inhibitory concentration (IC50) was 150 ± 20 nM. In addition, in assay [2], the “Cy5-DBP Distance, normalized to control” value was 0.92 ± 0.01 and the “Cy5-DBP Speed, normalized to control” value came out at 1.07 ± 0.01.

With `CC(=O)O[C@H]1C(=O)[C@@]2(C)[C@H]([C@H](OC(=O)c3ccccc3)[C@]3(O)C[C@H](OC(=O)[C@H](O)[C@@H](NC(=O)c4ccccc4)c4ccccc4)C(C)=C1C3(C)C)[C@]1(OC(C)=O)CO[C@@H]1C[C@@H]2O` [PTX, Paclitaxel], the IC50 in assay [1] (KB 3-1, MTT, 48 h, mean ± SEM) is 2.4 ± 0.2 nM. In assay [2] (1 μM PTX), the “reduction of Cy5-DBP particle displacement vs nontreated control cells” value is “approximately 20%”.

Take `CC(=O)OC1C(=O)C2(C)C(OC(=O)CCCCC(=O)OC3CCc4ccccc43)CC3OCC3(OC(C)=O)C2C(OC(=O)c2ccccc2)C2(O)CC(OC(=O)C(O)C(NC(=O)c3ccccc3)c3ccccc3)C(C)=C1C2(C)C` (stereo not shown) [1a, 7-O-(6″-O-(2‴,3‴-Dihydroinden-1‴-yl)hexanedioyl) Paclitaxel]: the concentration for half-maximal inhibition (IC50) in assay [1] (KB 3-1, 48 h) came out at 280 ± 30 nM. In assay [2], the “Cy5-DBP Distance, normalized to control” value is 0.92 ± 0.01 and the “Cy5-DBP Speed, normalized to control” value was found to be 0.98 ± 0.02.

Consider `CC(=O)O[C@H]1C(=O)[C@]2(C)[C@@H](OC(=O)[C@H](C)NC(=O)c3ccc(-c4c5cc(F)c(=O)cc-5oc5cc(O)c(F)cc45)c(C(=O)O)c3)C[C@H]3OC[C@@]3(OC(C)=O)[C@H]2[C@H](OC(=O)c2ccccc2)[C@]2(O)C[C@H](OC(=O)[C@H](O)[C@@H](NC(=O)c3ccccc3)c3ccccc3)C(C)=C1C2(C)C` [FTX2, Flutax2], for which, in assay [2], the “Cy5-DBP Distance, normalized to control” value is 1.06 ± 0.02 and the “Cy5-DBP Speed, normalized to control” value came out at 1.21 ± 0.02.

The IC50 is the concentration needed to halve the response being measured.
